Results as given in PubChem BioAssay (NCI).
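Results reflect a 48-hour exposure of cells in 96-well plates to compound at five concentrations. Abbreviation: GI50, concentration required for 50% inhibition of growth. The concentration for full growth arrest is given as TGI.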

Tests used:
Experiment in all cases: NCI tumour cell line growth inhibition, 48 h
[1] = system: HCT-116 colon
[2] = system: HCT-15 colon
[3] = system: IGROV1 ovarian
[4] = system: KM12 colon
[5] = system: NCI-H460 lung
[6] = system: OVCAR-4 ovarian
[7] = system: RPMI-8226 leukemia
[8] = system: RXF 393 renal
[9] = system: SF-268 CNS
[10] = system: U251 CNS
[11] = system: UACC-62 melanoma
[12] = system: K-562 leukemia
[13] = system: UO-31 renal

Row | SMILES | TGI [1] | TGI [2] | TGI [3] | TGI [4] | TGI [5] | TGI [6] | TGI [7] | TGI [8] | TGI [9] | TGI [10] | TGI [11] | TGI [12] | TGI [13] | GI50 [1] | GI50 [2] | GI50 [12] | GI50 [4] | GI50 [7] | GI50 [8] | GI50 [10]
1 | OCCNCCN1CCN(CCCN2c3ccccc3Sc3ccc(C(F)(F)F)cc32)CC1 | 31.7 µM | 37.3 µM | > 100 µM | 45.1 µM | 44.7 µM | 48.8 µM | > 100 µM | 47.5 µM | 44 µM | 35.8 µM | 41.2 µM |  |  |  |  |  |  |  |  | 
2 | Cc1ccc(C2OC(COCc3ccc(Cl)cc3)C(OCc3ccc(Cl)cc3)C2O)cc1 (stereo unspecified) | > 100 µM | > 100 µM | 35.5 µM | 71.2 µM | 14.9 µM | 40.9 µM | 81.2 µM | 10.8 µM |  | 34.2 µM | 18.7 µM | > 100 µM | 23.8 µM |  |  |  |  |  |  | 
3 | CCCc1c(-c2ccccc2)[nH]c2ccccc2c1=O | 72.8 µM | > 100 µM | > 100 µM | 88.2 µM | > 100 µM | > 100 µM | > 100 µM | > 100 µM | > 100 µM | > 100 µM | > 100 µM | > 100 µM | 69.1 µM |  |  |  |  |  |  | 
4 | CO/N=C(/C)c1ccc(NC(=O)CSc2nnc(-c3ccncc3)n2-c2ccccc2)cc1 | > 100 µM | > 100 µM |  | > 100 µM |  |  | > 100 µM | 4.93 µM |  | > 100 µM |  | > 100 µM |  | 3.43 µM | > 100 µM | > 100 µM | > 100 µM | > 100 µM | 2240 nM | 3.22 µM
5 | NCCSS(=O)(=O)CCN | > 100 µM | > 100 µM | > 100 µM | > 100 µM | > 100 µM | > 100 µM | > 100 µM | > 100 µM | > 100 µM | > 100 µM | > 100 µM | > 100 µM | > 100 µM |  |  |  |  |  |  | 
6 | CN(C)CCCN1c2ccccc2Sc2ccc3ccccc3c21 | 22.9 µM | 19.2 µM | 23.4 µM | 19.3 µM | 7.66 µM | 17.8 µM | 7.45 µM | 3.92 µM | 23.4 µM | 20 µM | 9.62 µM | 5.56 µM | 17 µM |  |  |  |  |  |  | 
7 | C=CC1(NC(=O)c2ccccc2)CCC(C(C)(C)C)CC1 (stereo unspecified) | 55.1 µM | > 85 µM | > 100 µM | > 100 µM | > 92.3 µM | > 100 µM | > 100 µM | > 85.8 µM | > 100 µM | 53.8 µM | 97.8 µM | > 100 µM | 77.7 µM |  |  |  |  |  |  | 
8 | O=C1C(Cl)=C(Nc2ccc(S(=O)(=O)O)cc2)C(=O)c2ccccc21 | > 100 µM | > 100 µM | > 100 µM | 56.3 µM | > 100 µM | > 100 µM | 70.1 µM | 37.6 µM | > 100 µM | > 100 µM | > 100 µM | 94.2 µM | 29.2 µM |  |  |  |  |  |  | 
9 | O=C(O)c1cc2c(ncc3c(=O)n(-c4ccccc4)[nH]c32)s1 | > 100 µM | > 100 µM | > 100 µM | > 100 µM | > 100 µM | > 100 µM | > 100 µM | > 100 µM | > 100 µM | > 100 µM | > 100 µM | > 100 µM | > 100 µM |  |  |  |  |  |  | 
10 | Cn1c(=O)c2[nH]c(CCNC(=O)c3ccccc3)nc2n(C)c1=O | > 100 µM | > 100 µM | > 100 µM | > 100 µM | > 100 µM | > 100 µM |  | > 100 µM | > 100 µM | > 100 µM | > 100 µM | > 100 µM | > 100 µM |  |  |  |  |  |  | 
11 | O=C1C=CC2(C=C1)O[C@H](Cc1ccccc1)[C@@H](Cc1ccccc1)O2 |  | 0.866 µM | 0.583 µM | 4.51 µM | 30.8 µM | 1.69 µM | 0.499 µM | 0.974 µM | 2.48 µM | 2.86 µM | 4.05 µM | 5.58 µM | 0.69 µM |  |  |  |  |  |  | 
12 | CC(=O)Oc1cc2c(cc1OC(C)=O)OCC(c1ccccc1)C2 (stereo unspecified) | 57.4 µM | 56.4 µM | 74.1 µM | 55.3 µM | 57.9 µM | 55.4 µM | 54.5 µM | 30 µM | 52.2 µM | 29.5 µM | 53.3 µM | 80.1 µM | 58.4 µM |  |  |  |  |  |  | 
13 | O=C1OC2(CC1C1(O)C3CC4CC(C3)CC1C4)C1CC3CC(C1)CC2C3 (stereo unspecified) | > 100 µM | > 100 µM | > 100 µM | > 100 µM | > 100 µM | 76.6 µM |  | > 100 µM | > 100 µM |  | > 100 µM | > 100 µM | > 100 µM |  |  |  |  |  |  | 
14 | N#C[C@H](OC1OC(COC2OC(CO)C(O)C(O)C2O)C(O)C(O)C1O)c1ccccc1 (stereo partly specified) | > 250 µM | > 250 µM | > 250 µM | > 250 µM | > 250 µM | > 250 µM | > 250 µM | > 250 µM | > 250 µM | > 250 µM | > 250 µM | > 250 µM | > 250 µM |  |  |  |  |  |  | 
15 | COc1nc(=O)n(COC(CO)CN2C(=O)c3ccccc3C2=O)cc1Cc1cccc(OCc2ccccc2)c1 (stereo unspecified) | > 100 µM | > 100 µM | 58.8 µM | 91.3 µM |  | 57.8 µM | 42.3 µM |  |  | 51.8 µM | 28.5 µM | 60.1 µM | 52.4 µM |  |  |  |  |  |  | 
16 | O=C(Nc1nc2ccc([N+](=O)[O-])cc2s1)C(=O)C(C(=O)c1ccccc1F)C1OC(=O)c2ccccc21 (stereo unspecified) | > 100 µM | > 100 µM | > 100 µM | > 100 µM | > 100 µM | > 100 µM | 70.6 µM |  | > 100 µM | 41.3 µM | > 100 µM | > 100 µM | > 100 µM |  |  |  |  |  |  | 
17 | O=C(CCl)NNC1=Nc2ccc(Cl)cc2SC1 | 3.2 µM | 3.97 µM | 3.58 µM | 9.94 µM | 20.4 µM | 5.63 µM | 5.01 µM | 3.44 µM | 3.92 µM | 4.28 µM | 5.46 µM | 5.34 µM | 3.49 µM |  |  |  |  |  |  | 
18 | Nc1ccn(C2C=C(CO)C(O)C2O)c(=O)c1 (stereo unspecified) | > 625 µM | > 625 µM | > 625 µM | > 625 µM | > 625 µM | > 625 µM | > 625 µM |  | > 625 µM |  | > 625 µM |  | > 625 µM |  |  |  |  |  |  | 
